Laboratory results published in patent US20250051338A1, “TYK2 DEGRADERS AND USES THEREOF” (Kymera Therapeutics, Inc., priority 2021, published 2025).

Key:
Format in all cases: cell-based
TYK2 [1] = biological target: T1, TYK2 (Homo sapiens, UniProt P29597); test: TYK2 degradation MSD assay in human PBMC cells; design: endogenous in cells; host or cells: human PBMC; settings: 4 to 24 hours incubation, read-out: TYK2 MSD DC50 rating in human PBMC
Method: (§1) Example 3. TYK2 Degradation MSD Assay in EBV-B, OCI-LY10, and Human PBMC Cells
(§2) Degradation of TYK2 in cells was quantitatively measured using Meso Scale Discovery (MSD) technology. EBV-B, OCI-LY10 or human PBMC cells were seeded in 96-well plates with a density of 0.4 million cells per well in 100 μl fresh media. Compounds were then added to the assay plates with a final top concentration of 1 to 10 μM in a 1:3 dilution series with total of 9 doses. The assay plates were then incubated for 4 to 24 hours at 37° C. under 5% CO2. The assay plates were then centrifuged for 5 minutes, and the cell pellets were treated with 100 μl/well RIPA lysis buffer (Boston Bioproducts, BP-115D) with protease and phosphatase inhibitors (Roche, 05892791001 and 04906837001). To prepare MSD assay plates (MSD, L15XA), the plates were coated with the capture antibody (Santa Cruz Biotechnology, SC-5271) in PBS, at 40 μl/well. The plates were then incubated overnight at 4° C., washed 3 times with 150 μl/well TBST buffer (Cell Signaling Technology, 9997S) and blocked with 150 μl/well blocking buffer (MSD, R93BA-4). Cell lysates were then added to MSD assay plates and the plates were incubated at room temperature for 1 hour. The plates were then washed 3 times with 150 μl/well TBST buffer and 25 μl/well primary detection antibody (Cell Signaling Technology, #9312). The assay plates were then incubated at room temperature for 1 hour, washed 3 times with 150 μl/well TBST buffer, and 25 μl/well secondary detection antibody, SULFO-TAG anti-rabbit antibody (MSD, R32AB-1) were added. The assay plates were then incubated at room temperature for 1 hour, washed 3 times with 150 μl/well TBST buffer, and 150 μl/well MSD reading buffer (MSD, R92TC-2) were added. The plates were then analyzed by an MSD reader. The data was analyzed by GraphPad Prism and the dose dependent TYK2 degradation was fit using the four-parameter inhibitor vs. response nonlinear regression. The DC50 data were measured and categorized into different levels in Table H. The compound with DC50 less than or equal to 1 nM is marked as A, with DC50 more than 1 nM and less than or equal to 10 nM is marked as B, with DC50 more than 10 nM and less than or equal to 100 nM is marked as C, and with DC50 more than 100 nM or not available is marked as D.

TYK2 [2] = biological target: T1, TYK2; test: TYK2 degradation MSD assay in EBV-B cells; design: endogenous in cells; host or cells: EBV-B cells; settings: 4 to 24 hours incubation, read-out: TYK2 MSD DC50 rating in EBV-B
Method: as §1, §2

TYK2 [3] = biological target: T1, TYK2; test: TYK2 degradation MSD assay in OCI-LY10 cells; design: endogenous in cells; host or cells: EBV-B cells; settings: 4 to 24 hours incubation, read-out: TYK2 MSD DC50 rating in OCI-LY10
Method: as §1, §2

T1 sequence (P29597 whole entry): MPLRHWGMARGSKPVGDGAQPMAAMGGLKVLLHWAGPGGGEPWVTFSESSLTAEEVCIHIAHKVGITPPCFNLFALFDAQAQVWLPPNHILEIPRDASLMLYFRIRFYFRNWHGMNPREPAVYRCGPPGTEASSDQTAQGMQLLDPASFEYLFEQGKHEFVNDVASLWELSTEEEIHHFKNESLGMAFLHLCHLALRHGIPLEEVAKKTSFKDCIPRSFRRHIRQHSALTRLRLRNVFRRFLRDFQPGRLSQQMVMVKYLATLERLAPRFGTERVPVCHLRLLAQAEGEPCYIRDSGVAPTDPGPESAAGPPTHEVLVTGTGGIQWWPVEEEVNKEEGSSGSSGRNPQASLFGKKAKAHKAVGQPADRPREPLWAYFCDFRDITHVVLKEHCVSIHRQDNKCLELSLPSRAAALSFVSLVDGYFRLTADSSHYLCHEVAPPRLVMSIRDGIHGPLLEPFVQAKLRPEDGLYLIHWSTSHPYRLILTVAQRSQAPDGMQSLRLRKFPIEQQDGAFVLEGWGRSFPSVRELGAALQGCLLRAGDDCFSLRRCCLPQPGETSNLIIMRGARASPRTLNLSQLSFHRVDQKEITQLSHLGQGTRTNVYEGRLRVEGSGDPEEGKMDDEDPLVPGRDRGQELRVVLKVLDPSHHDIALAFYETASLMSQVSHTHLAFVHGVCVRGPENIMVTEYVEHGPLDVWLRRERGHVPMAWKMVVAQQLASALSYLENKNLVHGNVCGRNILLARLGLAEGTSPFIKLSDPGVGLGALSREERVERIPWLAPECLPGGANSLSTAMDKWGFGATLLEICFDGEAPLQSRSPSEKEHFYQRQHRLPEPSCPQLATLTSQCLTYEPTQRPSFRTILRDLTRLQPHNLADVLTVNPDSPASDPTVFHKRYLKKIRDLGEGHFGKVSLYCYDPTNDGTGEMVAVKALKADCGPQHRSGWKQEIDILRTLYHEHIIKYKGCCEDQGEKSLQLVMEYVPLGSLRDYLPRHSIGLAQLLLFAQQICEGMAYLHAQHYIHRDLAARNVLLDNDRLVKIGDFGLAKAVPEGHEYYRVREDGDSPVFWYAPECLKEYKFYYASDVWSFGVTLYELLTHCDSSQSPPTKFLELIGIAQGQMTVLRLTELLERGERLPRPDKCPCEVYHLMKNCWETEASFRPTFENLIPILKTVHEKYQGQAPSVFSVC

DC50 (TYK2 [1])	DC50 (TYK2 [2])	DC50 (TYK2 [3])	Compound
> 100 nM	> 100 nM	> 100 nM	COc1c(Nc2cc(C(F)F)c3ncc(C(=O)N[C@@H]4C[C@@H]4F)n3n2)cccc1-c1ccc(CN2CCN(c3ccc(-c4ccc5c(c4)n(C)c(=O)n5C4CCC(=O)NC4=O)cc3)CC2)cn1 (mixture of isomers) [Example K539]
> 100 nM	> 100 nM	1 to 10 nM	CNc1cc(-c2cn(C)c3c(C4CCN(CC5CCN(c6ccc(-c7ccc8c(c7)n(C)c(=O)n8C7CCC(=O)NC7=O)cc6)CC5)CC4)cccc23)nn2c(C(=O)N[C@@H]3C[C@@H]3F)cnc12 (mixture of isomers) [Example K540]
> 100 nM	> 100 nM	< 1 nM	CNc1cc(Nc2cccc(-c3ccc(CN4CCN(c5ccc(-c6ccc7c(c6)n(C)c(=O)n7C6CCC(=O)NC6=O)cc5)CC4)cn3)c2Cl)nn2c(C(=O)N[C@@H]3C[C@@H]3F)cnc12 (mixture of isomers) [Example K541]
> 100 nM	> 100 nM	< 1 nM	CNc1cc(Nc2cccc(C#CCN3CCN(c4ccc(-c5ccc6c(c5)n(C)c(=O)n6C5CCC(=O)NC5=O)cc4)CC3)c2OC)nn2c(C(=O)N[C@@H]3C[C@@H]3F)cnc12 (mixture of isomers) [Example K543, 6-({3-[3-(4-{4-[1-(2,6-Dioxopiperidin-3-yl)-3-methyl-2-oxo-1,3-benzodiazol-5-yl]phenyl}piperazin-1-yl)prop-1-yn-1-yl]-2-methoxyphenyl}amino)-N-[(1R,2S)-2-fluorocyclopropyl]-8-(methylamino)imidazo[1,2-b]pyridazine-3-carboxamide]
> 100 nM	> 100 nM	< 1 nM	CNc1cc(N2CCc3c(-c4ccc(CN5CCC6(CC5)CCN(c5ccc7c(c5)n(C)c(=O)n7C5CCC(=O)NC5=O)CC6)cn4)cccc32)nn2c(C(=O)N[C@@H]3C[C@@H]3F)cnc12 (mixture of isomers) [Example K544]
> 100 nM	> 100 nM	> 100 nM	CNc1cc(-c2ccc(N3CCC(CN4CCN(c5ccc(-c6ccc7c(c6)n(C)c(=O)n7C6CCC(=O)NC6=O)cc5)CC4)CC3)cc2)nn2c(C(=O)N[C@@H]3C[C@@H]3F)cnc12 (mixture of isomers) [Example K545]
> 100 nM	> 100 nM	> 100 nM	CNc1cc(N2CCc3c(-c4ccc(CN5CCN(c6ccc(-c7cccc8c(N9CCC(=O)NC9=O)cncc78)cc6)CC5)cn4)cccc32)nn2c(C(=O)N[C@@H]3C[C@@H]3F)cnc12 (racemic) [Example K546]
> 100 nM	> 100 nM	> 100 nM	CNc1cc(Oc2cnn(C3CCN(CC4CCN(c5ccc(-c6ccc7c(c6)n(C)c(=O)n7C6CCC(=O)NC6=O)cc5)CC4)CC3)c2)nn2c(C(=O)N[C@@H]3C[C@@H]3F)cnc12 (mixture of isomers) [Example K547]
> 100 nM	> 100 nM	> 100 nM	CNc1cc(Nc2cnn(CC3CCN(CC4CCN(c5ccc6c(c5)n(C)c(=O)n6C5CCC(=O)NC5=O)CC4)CC3)c2)nn2c(C(=O)N[C@@H]3C[C@@H]3F)cnc12 (mixture of isomers) [Example K548]
> 100 nM	< 1 nM	< 1 nM	CNc1cc(Nc2cccc(-c3ccc(CN4CCN([C@H]5CC[C@@H](c6ccc7c(c6)n(C)c(=O)n7C6CCC(=O)NC6=O)CC5)CC4)cn3)c2OC)nn2c(C(=O)N[C@@H]3C[C@@H]3F)cnc12 (mixture of isomers) [Example K552]
> 100 nM	< 1 nM	< 1 nM	CNc1cc(Nc2cccc(-c3ccc(CN4CCN([C@H]5CC[C@H](c6ccc7c(c6)n(C)c(=O)n7C6CCC(=O)NC6=O)CC5)CC4)cn3)c2OC)nn2c(C(=O)N[C@@H]3C[C@@H]3F)cnc12 (mixture of isomers) [Example K553]
> 100 nM	> 100 nM	1 to 10 nM	CNc1cc(N2CCc3c(CN4CCN(c5ccc(-c6ccc7c(c6)n(C)c(=O)n7C6CCC(=O)NC6=O)cc5)CC4)cccc32)nn2c(C(=O)N[C@@H]3C[C@@H]3F)cnc12 (mixture of isomers) [Example K575]

More lines, now with the values behind:

Compound	DC50 (TYK2 [1])	DC50 (TYK2 [2])	DC50 (TYK2 [3])
CNc1cc(-c2ccc(N3CCC(CN4CC5(CCN(c6cccc7c6n(C)c(=O)n7C6CCC(=O)NC6=O)CC5)C4)CC3)cc2)nn2c(C(=O)N[C@@H]3C[C@@H]3F)cnc12 (mixture of isomers) [Example K533]	> 100 nM	> 100 nM	> 100 nM
CNc1cc(N2CCc3c(C4CCN(CC5CCN(C(=O)c6ccc(Cl)c(N7CCC(=O)NC7=O)c6)CC5)CC4)cccc32)nn2c(C(=O)N[C@@H]3C[C@@H]3F)cnc12 (racemic) [Example K535]	> 100 nM	> 100 nM	> 100 nM
CNc1cc(N2CCc3c(C4CCN(CC5CCN(c6ccc(-c7ccc8c(c7)n(C)c(=O)n8C7CCC(=O)NC7=O)cc6)CC5)CC4)cccc32)nn2c(C(=O)N[C@@H]3C[C@@H]3F)cnc12 (mixture of isomers) [Example K536]	> 100 nM	> 100 nM	< 1 nM
CNc1cc(Nc2cccc(C3CCN(CC4CCN(c5ccc(-c6cccc7c6n(C)c(=O)n7C6CCC(=O)NC6=O)cc5)CC4)CC3)c2OC)nn2c(C(=O)N[C@@H]3C[C@@H]3F)cnc12 (mixture of isomers) [Example K538]	> 100 nM	> 100 nM	> 100 nM
CNC(=O)c1cnc(NC(=O)CCCCCCCc2ccc3c(c2)n(C)c(=O)n3C2CCC(=O)NC2=O)cc1Nc1cccc(-c2ncc(F)cn2)c1OC (centres unmarked) [Example K104]	> 100 nM	> 100 nM	> 100 nM
CNC(=O)c1cnc(NC(=O)NCCCCc2cccc3c2n(C)c(=O)n3C2CCC(=O)NC2=O)cc1Nc1cccc(-c2ncc(F)cn2)c1OC (centres unmarked) [Example K105]	> 100 nM	> 100 nM	> 100 nM
CNC(=O)c1cnc(NC(=O)NCCCCCCc2cccc3c2n(C)c(=O)n3C2CCC(=O)NC2=O)cc1Nc1cccc(-c2ncc(F)cn2)c1OC (centres unmarked) [Example K106]	> 100 nM	> 100 nM	> 100 nM
CNC(=O)c1cnc(Nc2ccc(C(=O)NCCCCc3ccc4c(c3)n(C)c(=O)n4C3CCC(=O)NC3=O)cn2)cc1Nc1cccc(-c2ncc(F)cn2)c1OC (centres unmarked) [Example K107]	< 1 nM	> 100 nM	> 100 nM
CNC(=O)c1cnc(Nc2ccc(C(=O)NCCCCCCc3ccc4c(c3)n(C)c(=O)n4C3CCC(=O)NC3=O)cn2)cc1Nc1cccc(-c2ncc(F)cn2)c1OC (centres unmarked) [Example K110]	< 1 nM	> 100 nM	> 100 nM
CNC(=O)c1cnc(Nc2ccc(C(=O)NCCCCCCCCc3ccc4c(c3)n(C)c(=O)n4C3CCC(=O)NC3=O)cn2)cc1Nc1cccc(-c2ncc(F)cn2)c1OC (centres unmarked) [Example K111]	< 1 nM	1 to 10 nM	> 100 nM
CNC(=O)c1cnc(Nc2ccc(C(=O)NCCOCCOCCc3ccc4c(c3)n(C)c(=O)n4C3CCC(=O)NC3=O)cn2)cc1Nc1cccc(-c2ncc(F)cn2)c1OC (centres unmarked) [Example K112]	1 to 10 nM	1 to 10 nM	> 100 nM
CNC(=O)c1cnc(Nc2ccc(C(=O)NCCOCCOCCOCCOCCc3ccc4c(c3)n(C)c(=O)n4C3CCC(=O)NC3=O)cn2)cc1Nc1cccc(-c2ncc(F)cn2)c1OC (centres unmarked) [Example K113]	1 to 10 nM	> 100 nM	> 100 nM
CNc1cc(Nc2cccn(-c3cc(C(=O)NCCOCCOCCOCCOCCOCCOCCc4cccc5c4n(C)c(=O)n5C4CCC(=O)NC4=O)ccn3)c2=O)nn2c(C(=O)N[C@@H]3C[C@@H]3F)cnc12 (some centres unmarked) [Example K246]		> 100 nM	
CNc1cc(Nc2cccc(C(=O)NCCCCc3ccc4c(c3)n(C)c(=O)n4C3CCC(=O)NC3=O)c2)nn2c(C(=O)N[C@@H]3C[C@@H]3F)cnc12 (some centres unmarked) [Example K368]		> 100 nM	
CNc1cc(Nc2cccn(-c3ccc(C(=O)N4CCC(CN5CCC(c6ccc7c(c6)n(C)c(=O)n7C6CCC(=O)NC6=O)CC5)CC4)cn3)c2=O)nn2c(C(=O)N[C@@H]3C[C@@H]3F)cnc12 (some centres unmarked) [Example K411]		> 100 nM	< 1 nM
CNc1cc(Nc2cccc(-c3ccc(CN4CCN(c5ccc(-c6ccc7c(c6)n(C)c(=O)n7C6CCC(=O)NC6=O)cc5)CC4)cn3)c2)nn2c(C(=O)N[C@@H]3C[C@@H]3F)cnc12 (some centres unmarked) [Example K511]		> 100 nM	
